Experiments:
[1] = test system: SW684; assay: OncoPanel cell proliferation assay, SW684; format: cell-based, human; conditions: for GI50: read-out: Cell Count GI50
Protocol: (§1) Cells were seeded into 384-well plates and incubated in a humidified atmosphere of 5% CO2 at 37° C. Compounds were added the day following cell seeding. At the same time, a time zero untreated cell plate was generated. After a 3-day incubation period, cells were fixed and stained to allow fluorescence imaging of nuclei. Compounds (1 mM stock solutions) were serially diluted in half-log steps from the highest test concentration ([…]), and assayed over 10 concentrations with a maximum assay concentration of 0.1% DMSO. Automated fluorescence microscopy was carried out using a Molecular Devices ImageXpress Micro XL high-content imager, and images were collected with a 4× objective. 16-bit TIFF images were acquired and analyzed with MetaXpress 5.1.0.41 software.
(§2) Cell proliferation was measured by the fluorescence intensity of an incorporated nuclear dye. The output is referred to as the relative cell count, where the measured nuclear intensity is transformed to percent of control (POC) using the following formula: […]
(§3) Cellular response parameters were calculated using nonlinear regression to a sigmoidal single-site dose response model:
(§4) GI50 is the concentration needed to reduce the observed growth by half (midway between the curve maximum and the time zero value). […] In rare instances, values <0 or >10 may be observed. […] Curve-fitting, calculations, and report generation was performed using a custom data reduction engine and MathIQ based software (AIM).

[2] = test system: Hs 852.T; assay: OncoPanel cell proliferation assay, Hs 852.T; format: cell-based, human; conditions: for GI50: read-out: Cell Count GI50
Protocol: as §1, with “Cells were grown in RPMI 1640, 10% FBS, 2 mM L-alanyl-L-glutamine, 1 mM Na pyruvate, or a special medium. Cells” for “Cells”
as §2, §3
(§5) EC50 is the test compound concentration at the curve inflection point or half the effective response (parameter C of the fitted curve solution). GI50 is the concentration needed to reduce the observed growth by half (midway between the curve maximum and the time zero value). “Cell Count Activity Area” is an estimate of the integrated area above the curve (Barretina, et al. The Cancer Cell Line Encyclopedia enables predictive modelling of anticancer drug sensitivity. Nature 483: 603-607). […] In rare instances, values <0 or >10 may be observed. […] Curve-fitting, calculations, and report generation was performed using a custom data reduction engine and MathIQ based software (AIM).

[3] = test system: A388; assay: OncoPanel cell proliferation assay, A388; format: cell-based, human; conditions: for GI50: read-out: Cell Count GI50
Protocol: as §1, §2, §3, §4

[4] = test system: CEM-C1; assay: OncoPanel cell proliferation assay, CEM-C1; format: cell-based, human; conditions: for GI50: read-out: Cell Count GI50; for IC50: read-out: Cell Count IC50
Protocol: as §1, with “Cells were grown in RPMI 1640, 10% FBS, 2 mM L-alanyl-L-glutamine, 1 mM Na pyruvate, or a special medium. Cells” for “Cells”
as §2, §3, §5

[5] = test system: MES-SA; assay: OncoPanel cell proliferation assay, MES-SA; format: cell-based, human; conditions: for GI50: read-out: Cell Count GI50
Protocol: as §1, with “Cells were grown in RPMI 1640, 10% FBS, 2 mM L-alanyl-L-glutamine, 1 mM Na pyruvate, or a special medium. Cells” for “Cells”
as §2, §3, §5

[6] = test system: RL95-2; assay: OncoPanel cell proliferation assay, RL95-2; format: cell-based, human; conditions: for GI50: read-out: Cell Count GI50
Protocol: as §1, with “Cells were grown in RPMI 1640, 10% FBS, 2 mM L-alanyl-L-glutamine, 1 mM Na pyruvate, or a special medium. Cells” for “Cells”
as §2, §3, §5

[7] = test system: SK-N-AS; assay: OncoPanel cell proliferation assay, SK-N-AS; format: cell-based, human; conditions: for EC50: read-out: Cell Count EC50; for GI50: read-out: Cell Count GI50
Protocol: as §1, with “Cells were grown in RPMI 1640, 10% FBS, 2 mM L-alanyl-L-glutamine, 1 mM Na pyruvate, or a special medium. Cells” for “Cells”
as §2, §3, §5

[8] = test system: SNU-5; assay: OncoPanel cell proliferation assay, SNU-5; format: cell-based, human; conditions: for EC50: read-out: Cell Count EC50; for GI50: read-out: Cell Count GI50
Protocol: as §1, §2, §3, §4

[9] = test system: ST486; assay: OncoPanel cell proliferation assay, ST486; format: cell-based, human; conditions: for GI50: read-out: Cell Count GI50; for IC50: read-out: Cell Count IC50
Protocol: as §1, with “Cells were grown in RPMI 1640, 10% FBS, 2 mM L-alanyl-L-glutamine, 1 mM Na pyruvate, or a special medium. Cells” for “Cells”
as §2, §3, §5

[10] = test system: SW579; assay: OncoPanel cell proliferation assay, SW579; format: cell-based, human; conditions: for EC50: read-out: Cell Count EC50; for GI50: read-out: Cell Count GI50
Protocol: as §1, with “Cells were grown in RPMI 1640, 10% FBS, 2 mM L-alanyl-L-glutamine, 1 mM Na pyruvate, or a special medium. Cells” for “Cells”
as §2, §3, §5

[11] = test system: U-138MG; assay: OncoPanel cell proliferation assay, U-138MG; format: cell-based, human; conditions: U-138MG; for EC50: read-out: Cell Count EC50; for GI50: read-out: Cell Count GI50
Protocol: as §1, with “Cells were grown in RPMI 1640, 10% FBS, 2 mM L-alanyl-L-glutamine, 1 mM Na pyruvate, or a special medium. Cells” for “Cells”
as §2, §3, §5

[12] = test system: OVCAR3; assay: OncoPanel cell proliferation assay, OVCAR3; conditions: for GI50: OVCAR-3, read-out: Cell Count GI50; for Cell Count Activity Area: OVCAR3
Protocol: Cells were seeded into 384-well plates and incubated in a humidified atmosphere of 5% CO2 at 37° C. Compounds were added the day following cell seeding. At the same time, a time zero untreated cell plate was generated. After a 3-day incubation period, cells were fixed and stained to allow fluorescence imaging of nuclei. Compounds (1 mM stock solutions) were serially diluted in half-log steps from the highest test concentration (1 micromol), and assayed over 10 concentrations with a maximum assay concentration of 0.1% DMSO. Automated fluorescence microscopy was carried out using a Molecular Devices ImageXpress Micro XL high-content imager, and images were collected with a 4× objective. 16-bit TIFF images were acquired and analyzed with MetaXpress 5.1.0.41 software.

[13] = Homo sapiens, read-out: Cell Count IC50
[14] = Homo sapiens, read-out: Cell Count EC50

Compound: CN[C@@H]1C[C@H]2O[C@@](C)([C@@H]1OC)n1c3ccccc3c3c4c(c5c6ccccc6n2c5c31)C(=O)NC4 [Staurosporine, reference compound]
- GI50 ([1]; Homo sapiens): 0.95 nM
- Cell Count Activity Area [2]: 3.16
- GI50 ([2]; Homo sapiens): 1.35 nM
- Cell Count Activity Area [3]: 4.99
- GI50 ([3]; Homo sapiens): 1.03 nM
- Cell Count Activity Area [4]: 4.28
- GI50 ([4]; Homo sapiens): 7.27 nM
- IC50 ([4]; Homo sapiens): 9.2 nM
- Cell Count Activity Area [5]: 2.80
- GI50 ([5]; Homo sapiens): 13 nM
- Cell Count Activity Area [6]: 3.87
- GI50 ([6]; Homo sapiens): 6.83 nM
- Cell Count Activity Area [7]: 4.83
- EC50 ([7]; Homo sapiens): 1.7 nM
- GI50 ([7]; Homo sapiens): 1.27 nM
- Cell Count Activity Area [8]: 2.58
- EC50 ([8]; Homo sapiens): 6.44 nM
- GI50 ([8]; Homo sapiens): 10.3 nM
- Cell Count Activity Area [9]: 4.89
- GI50 ([9]; Homo sapiens): 2.83 nM
- IC50 ([9]; Homo sapiens): 4.61 nM
- Cell Count Activity Area [10]: 6.09
- EC50 ([10]; Homo sapiens): 0.52 nM
- GI50 ([10]; Homo sapiens): 0.506 nM
- EC50 ([11]; Homo sapiens, U138-MG): 0.857 nM
- GI50 ([11]; Homo sapiens, U138-MG): 1.05 nM
- Cell Count Activity Area [11]: 3.72
- GI50 ([12]; Homo sapiens): 6.11 nM
- Cell Count Activity Area [12]: 3.41

Compound: CO[C@H]1C[C@@H]2CC[C@@H](C)[C@@](O)(O2)C(=O)C(=O)N2CCCC[C@H]2C(=O)O[C@H]([C@H](C)C[C@@H]2CC[C@@H](O)[C@H](OC)C2)CC(=O)[C@H](C)/C=C(\C)[C@@H](O)[C@@H](OC)C(=O)[C@H](C)C[C@H](C)/C=C/C=C/C=C/1C [Rapamycin, reference compound]
- Cell Count Activity Area [1]: 2.81
- GI50 ([1]; Homo sapiens): 1.97 nM
- IC50 [1, 13]: > 1000 nM
- Cell Count Activity Area [2]: 1.43
- EC50 [2, 14]: > 1000 nM
- GI50 ([2]; Homo sapiens): > 1000 nM
- IC50 [2, 13]: > 1000 nM
- EC50 [3, 14]: > 1000 nM
- GI50 ([3]; Homo sapiens): > 1000 nM
- IC50 [3, 13]: > 1000 nM
- Cell Count Activity Area [4]: 3.61
- EC50 [4, 14]: 0.265 nM
- GI50 ([4]; Homo sapiens): 4.36 nM
- IC50 ([4]; Homo sapiens): > 1000 nM
- Cell Count Activity Area [5]: 5.39
- EC50 [5, 14]: 0.174 nM
- GI50 ([5]; Homo sapiens): 0.294 nM
- IC50 [5, 13]: 0.415 nM
- Cell Count Activity Area [6]: 4.24
- EC50 [6, 14]: 0.0705 nM
- GI50 ([6]; Homo sapiens): 0.13 nM
- IC50 [6, 13]: > 1000 nM
- Cell Count Activity Area [7]: 3.58
- EC50 ([7]; Homo sapiens): 0.231 nM
- GI50 ([7]; Homo sapiens): 0.432 nM
- IC50 [7, 13]: > 1000 nM
- EC50 ([8]; Homo sapiens): 0.885 nM
- GI50 ([8]; Homo sapiens): 24 nM
- IC50 [8, 13]: > 1000 nM
- Cell Count Activity Area [9]: 3.99
- EC50 [9, 14]: 0.0354 nM
- GI50 ([9]; Homo sapiens): 0.0524 nM
- IC50 ([9]; Homo sapiens): > 1000 nM
- Cell Count Activity Area [10]: 4.77
- EC50 ([10]; Homo sapiens): 0.0136 nM
- GI50 ([10]; Homo sapiens): 0.0539 nM
- IC50 [10, 13]: > 1000 nM
- EC50 ([11]; Homo sapiens, U138-MG): 0.0363 nM
- GI50 ([11]; Homo sapiens, U138-MG): 0.436 nM
- IC50 ([11]; Homo sapiens, U138-MG, read-out: Cell Count IC50): > 1000 nM
- Cell Count Activity Area [11]: 3.14
- EC50 ([12]; Homo sapiens, OVCAR-3, read-out: Cell Count EC50): 1.53 nM
- GI50 ([12]; Homo sapiens): 124 nM
- IC50 ([12]; Homo sapiens, OVCAR-3, read-out: Cell Count IC50): > 1000 nM
- Cell Count Activity Area [12]: 2.08
